Laboratory results from ChEMBL document CHEMBL5696439 (Cancer Res, 2010).
The source made the active and inactive calls. The rule behind the calls is not given here.

Tests used:
[1] = molecular target: Proto-oncogene tyrosine-protein kinase Src (Homo sapiens) (UniProt P12931); assay: Inhibition of recombinant human full length His-tagged SRC expressed in insect cells at 2 uM using Tyr 02 as substrate measured after 1 hr by Z'-LYTE assay relative to control; conditions: Insect cell
[2] = molecular target: Fibroblast growth factor receptor 1 (Homo sapiens) (UniProt P11362); assay: Inhibition of recombinant human His-tagged FGFR1 (308-731 residues) expressed in baculovirus expression system at 2 uM using Tyr 04 as substrate measured after 1 hr by Z'-LYTE assay relative to control
Chain of Fibroblast growth factor receptor 1 (Homo sapiens) (P11362 22-822 limits assumed): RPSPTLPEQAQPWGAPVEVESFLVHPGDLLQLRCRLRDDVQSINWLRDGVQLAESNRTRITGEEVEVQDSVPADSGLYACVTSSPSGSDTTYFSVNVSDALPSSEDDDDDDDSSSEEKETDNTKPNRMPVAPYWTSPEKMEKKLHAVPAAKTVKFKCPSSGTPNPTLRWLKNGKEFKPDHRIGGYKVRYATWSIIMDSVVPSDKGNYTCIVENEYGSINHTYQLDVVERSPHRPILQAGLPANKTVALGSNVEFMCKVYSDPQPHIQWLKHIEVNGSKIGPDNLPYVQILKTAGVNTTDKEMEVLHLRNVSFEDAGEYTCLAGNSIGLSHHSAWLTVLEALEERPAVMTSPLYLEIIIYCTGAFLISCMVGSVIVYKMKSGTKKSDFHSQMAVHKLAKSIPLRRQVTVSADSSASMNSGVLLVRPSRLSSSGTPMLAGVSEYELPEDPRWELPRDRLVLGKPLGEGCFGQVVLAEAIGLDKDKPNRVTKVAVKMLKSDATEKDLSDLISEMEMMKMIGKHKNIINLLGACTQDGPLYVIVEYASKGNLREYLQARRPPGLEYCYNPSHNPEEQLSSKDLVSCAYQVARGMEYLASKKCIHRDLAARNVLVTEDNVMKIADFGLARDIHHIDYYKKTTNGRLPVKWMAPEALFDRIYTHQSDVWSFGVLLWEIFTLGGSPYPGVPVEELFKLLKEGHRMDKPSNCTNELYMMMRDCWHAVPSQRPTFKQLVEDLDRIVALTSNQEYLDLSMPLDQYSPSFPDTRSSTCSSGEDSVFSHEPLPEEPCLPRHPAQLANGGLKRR

[3] = system: Epidermal growth factor receptor (Homo sapiens), P00533 [L861Q]; assay: Inhibition of recombinant human GST-tagged EGFR L861Q mutant (668-1210 residues) expressed in insect cells at 2 uM using Tyr 04 as substrate measured after 1 hr by Z'-LYTE assay relative to control; conditions: Insect cell
[4] = molecular target: Rhodopsin kinase GRK7 (Homo sapiens) (UniProt Q8WTQ7); assay: Inhibition of recombinant human full-length GST-tagged GRK7 expressed in insect cells at 2 uM using Ser/Thr 16 as substrate measured after 1 hr by Z'-LYTE assay relative to control; conditions: Insect cell
[5] = molecular target: SRSF protein kinase 3 (Homo sapiens) (UniProt Q9UPE1); assay: Inhibition of recombinant human full length GST-tagged STK23 expressed in baculovirus expression system at 2 uM using Ser/Thr 18 as substrate measured after 1 hr by Z'-LYTE assay relative to control
[6] = molecular target: Serine/threonine-protein kinase 4 (Homo sapiens) (UniProt Q13043); assay: Inhibition of recombinant human full length GST-tagged STK4 expressed in insect cells at 2 uM using Ser/Thr 07 as substrate measured after 1 hr by Z'-LYTE assay relative to control; conditions: Insect cell
Chain of Serine/threonine-protein kinase 4 (Homo sapiens) (Q13043 whole entry): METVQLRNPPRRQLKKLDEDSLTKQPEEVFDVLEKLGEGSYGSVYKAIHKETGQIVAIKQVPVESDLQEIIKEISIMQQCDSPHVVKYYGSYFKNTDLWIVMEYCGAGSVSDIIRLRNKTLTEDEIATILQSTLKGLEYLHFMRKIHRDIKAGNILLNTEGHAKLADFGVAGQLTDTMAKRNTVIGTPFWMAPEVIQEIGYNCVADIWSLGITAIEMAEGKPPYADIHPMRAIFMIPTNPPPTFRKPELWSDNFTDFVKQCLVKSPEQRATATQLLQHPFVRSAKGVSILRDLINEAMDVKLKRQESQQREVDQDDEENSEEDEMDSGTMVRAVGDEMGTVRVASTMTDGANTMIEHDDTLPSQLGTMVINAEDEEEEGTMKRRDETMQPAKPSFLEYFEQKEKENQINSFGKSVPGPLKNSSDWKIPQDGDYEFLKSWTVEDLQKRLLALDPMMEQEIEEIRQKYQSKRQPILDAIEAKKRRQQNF

[7] = molecular target: Serine/threonine-protein kinase Nek4 (Homo sapiens) (UniProt P51957); assay: Inhibition of recombinant human full length GST-tagged NEK4 expressed in insect cells at 2 uM using Ser/Thr 17 as substrate measured after 1 hr by Z'-LYTE assay relative to control; conditions: Insect cell
Chain of Serine/threonine-protein kinase Nek4 (Homo sapiens) (P51957 whole entry, looked up): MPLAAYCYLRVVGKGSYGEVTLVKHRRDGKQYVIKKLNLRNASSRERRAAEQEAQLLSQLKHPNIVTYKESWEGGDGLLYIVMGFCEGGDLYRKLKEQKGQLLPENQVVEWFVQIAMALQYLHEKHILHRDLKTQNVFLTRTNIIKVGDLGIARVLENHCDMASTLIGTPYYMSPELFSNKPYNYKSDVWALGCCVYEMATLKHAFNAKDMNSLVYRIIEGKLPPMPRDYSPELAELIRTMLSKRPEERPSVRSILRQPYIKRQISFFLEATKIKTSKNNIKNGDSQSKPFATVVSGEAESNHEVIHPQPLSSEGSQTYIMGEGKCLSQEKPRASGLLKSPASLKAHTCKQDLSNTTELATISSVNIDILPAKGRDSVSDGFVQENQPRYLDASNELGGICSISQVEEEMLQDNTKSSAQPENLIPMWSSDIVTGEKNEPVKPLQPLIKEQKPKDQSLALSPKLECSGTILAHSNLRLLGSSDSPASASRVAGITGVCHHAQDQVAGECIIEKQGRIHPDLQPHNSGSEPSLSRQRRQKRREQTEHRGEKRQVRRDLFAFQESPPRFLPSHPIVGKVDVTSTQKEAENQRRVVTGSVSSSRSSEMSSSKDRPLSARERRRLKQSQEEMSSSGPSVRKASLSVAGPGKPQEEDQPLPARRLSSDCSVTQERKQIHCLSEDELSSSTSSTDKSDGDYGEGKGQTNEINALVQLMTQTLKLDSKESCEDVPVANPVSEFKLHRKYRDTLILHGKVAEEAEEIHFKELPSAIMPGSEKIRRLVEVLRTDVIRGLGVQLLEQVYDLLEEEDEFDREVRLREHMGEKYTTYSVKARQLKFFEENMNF

[8] = system: MDA-MB-361; assay: Antitumor activity against human MDA-MB-361 cells assessed as block the hypoxia-induced lactate production in low oxygen at 0.3 micromol/L incubated for 24 hrs; assay type: functional, cell-based; conditions: dose 0.3 µmol/L
[9] = system: Hepatocyte growth factor receptor (Homo sapiens), P08581 [M1250T]; assay: Inhibition of recombinant human His-tagged MET M1250T mutant (956-1390 residues) expressed in insect cells at 2 uM using Tyr 06 as substrate measured after 1 hr by Z'-LYTE assay relative to control; conditions: Insect cell
Chain of Hepatocyte growth factor receptor (Homo sapiens), P08581 [M1250T] (P08581 whole entry M1250T, the tested form may be a part): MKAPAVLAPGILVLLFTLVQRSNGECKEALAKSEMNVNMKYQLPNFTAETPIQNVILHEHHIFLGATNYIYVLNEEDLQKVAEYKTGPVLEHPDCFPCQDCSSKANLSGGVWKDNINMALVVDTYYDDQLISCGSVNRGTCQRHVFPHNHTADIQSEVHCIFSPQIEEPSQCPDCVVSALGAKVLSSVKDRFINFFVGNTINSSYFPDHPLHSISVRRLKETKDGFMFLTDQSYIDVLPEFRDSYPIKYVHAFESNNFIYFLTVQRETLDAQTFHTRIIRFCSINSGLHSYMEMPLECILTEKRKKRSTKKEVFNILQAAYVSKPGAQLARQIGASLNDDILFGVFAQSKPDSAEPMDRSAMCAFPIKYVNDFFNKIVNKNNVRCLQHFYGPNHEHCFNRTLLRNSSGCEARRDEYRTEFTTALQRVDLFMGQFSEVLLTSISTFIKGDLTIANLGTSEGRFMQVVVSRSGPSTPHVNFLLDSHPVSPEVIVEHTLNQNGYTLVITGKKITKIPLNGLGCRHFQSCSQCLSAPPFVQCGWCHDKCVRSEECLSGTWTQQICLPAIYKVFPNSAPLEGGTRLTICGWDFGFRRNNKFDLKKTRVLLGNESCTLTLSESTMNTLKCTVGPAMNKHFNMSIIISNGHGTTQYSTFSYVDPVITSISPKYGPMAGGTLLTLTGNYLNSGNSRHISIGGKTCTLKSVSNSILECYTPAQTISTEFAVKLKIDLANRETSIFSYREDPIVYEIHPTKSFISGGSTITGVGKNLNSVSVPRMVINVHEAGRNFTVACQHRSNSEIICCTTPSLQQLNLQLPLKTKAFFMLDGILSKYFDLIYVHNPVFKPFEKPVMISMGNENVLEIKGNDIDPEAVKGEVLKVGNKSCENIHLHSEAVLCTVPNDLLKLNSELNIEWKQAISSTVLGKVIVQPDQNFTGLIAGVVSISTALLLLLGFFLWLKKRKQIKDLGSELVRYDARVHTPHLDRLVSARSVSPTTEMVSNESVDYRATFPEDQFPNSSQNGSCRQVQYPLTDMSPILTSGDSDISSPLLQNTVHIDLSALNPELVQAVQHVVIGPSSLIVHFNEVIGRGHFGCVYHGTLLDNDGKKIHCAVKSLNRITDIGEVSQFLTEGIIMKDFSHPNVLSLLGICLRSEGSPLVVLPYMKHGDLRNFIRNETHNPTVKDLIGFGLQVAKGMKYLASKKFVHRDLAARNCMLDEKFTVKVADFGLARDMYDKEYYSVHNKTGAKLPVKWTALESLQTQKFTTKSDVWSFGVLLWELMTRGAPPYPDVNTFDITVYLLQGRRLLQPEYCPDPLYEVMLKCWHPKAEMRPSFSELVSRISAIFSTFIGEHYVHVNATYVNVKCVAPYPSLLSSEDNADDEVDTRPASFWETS

[10] = molecular target: Ribosomal protein S6 kinase beta-1 (Homo sapiens) (UniProt P23443); assay: Inhibition of recombinant human GST-tagged RPS6KB1 (1-421 residues) expressed in insect cells at 2 uM using Ser/Thr 07 as substrate measured after 1 hr by Z'-LYTE assay relative to control; conditions: Insect cell
[11] = molecular target: Phosphorylase b kinase gamma catalytic chain, skeletal muscle/heart isoform (Homo sapiens) (UniProt Q16816); assay: Inhibition of recombinant human full length GST-tagged PHKG1 expressed in insect cells at 2 uM using Ser/Thr 07 as substrate measured after 1 hr by Z'-LYTE assay relative to control; conditions: Insect cell
Chain of Phosphorylase b kinase gamma catalytic chain, skeletal muscle/heart isoform (Homo sapiens) (Q16816 whole entry, looked up, canonical isoform): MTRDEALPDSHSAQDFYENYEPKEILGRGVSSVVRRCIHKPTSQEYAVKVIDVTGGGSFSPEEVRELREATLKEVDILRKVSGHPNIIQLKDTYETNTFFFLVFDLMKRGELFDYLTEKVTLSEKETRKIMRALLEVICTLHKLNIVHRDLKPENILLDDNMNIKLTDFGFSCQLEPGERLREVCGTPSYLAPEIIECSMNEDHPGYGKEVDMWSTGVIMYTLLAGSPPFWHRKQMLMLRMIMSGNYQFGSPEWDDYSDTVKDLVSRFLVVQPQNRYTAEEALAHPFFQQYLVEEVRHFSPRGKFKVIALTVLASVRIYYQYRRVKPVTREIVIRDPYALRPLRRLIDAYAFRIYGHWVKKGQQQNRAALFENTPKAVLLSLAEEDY

[12] = molecular target: Tyrosine-protein kinase ABL2 (Homo sapiens) (UniProt P42684); assay: Inhibition of recombinant human full-length His-tagged ABL2 expressed in insect cells at 2 uM using Tyr 02 as substrate measured after 1 hr by Z'-LYTE assay relative to control; conditions: Insect cell
[13] = system: MDA-MB-468; assay: Antiproliferative activity against human MDA-MB-468 cells assessed as cell growth inhibition incubated for 24 hrs by MTS assay; assay type: functional, cell-based; conditions: MDA-MB-468, 24 h
[14] = molecular target: Protein kinase C beta type (Homo sapiens) (UniProt P05771); assay: Inhibition of recombinant human full length GST-tagged PRKCB1 expressed in baculovirus expression system at 2 uM using Ser/Thr 07 as substrate measured after 1 hr by Z'-LYTE assay relative to control
Chain of Protein kinase C beta type (Homo sapiens) (P05771 2-671 limits assumed): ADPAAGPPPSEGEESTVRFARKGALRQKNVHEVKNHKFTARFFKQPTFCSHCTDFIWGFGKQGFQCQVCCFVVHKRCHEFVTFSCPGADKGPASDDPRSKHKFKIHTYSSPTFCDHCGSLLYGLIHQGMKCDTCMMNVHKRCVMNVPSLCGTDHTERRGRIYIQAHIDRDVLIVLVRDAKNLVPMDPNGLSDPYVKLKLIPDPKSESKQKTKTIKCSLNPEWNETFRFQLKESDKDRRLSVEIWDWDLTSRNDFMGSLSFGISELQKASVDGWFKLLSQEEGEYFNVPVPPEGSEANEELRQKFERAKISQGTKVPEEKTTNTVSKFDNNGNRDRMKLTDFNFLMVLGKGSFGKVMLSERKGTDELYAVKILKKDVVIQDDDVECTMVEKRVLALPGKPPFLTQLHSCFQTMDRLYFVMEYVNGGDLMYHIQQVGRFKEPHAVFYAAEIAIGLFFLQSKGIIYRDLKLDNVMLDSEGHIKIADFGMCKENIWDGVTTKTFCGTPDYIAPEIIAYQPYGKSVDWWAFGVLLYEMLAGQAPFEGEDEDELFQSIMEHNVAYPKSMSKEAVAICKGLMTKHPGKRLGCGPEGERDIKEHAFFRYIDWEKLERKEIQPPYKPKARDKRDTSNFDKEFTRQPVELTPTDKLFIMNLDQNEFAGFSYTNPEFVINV

[15] = molecular target: Aurora kinase B (Homo sapiens) (UniProt Q96GD4); assay: Inhibition of recombinant human full-length His-tagged AURKB expressed in insect cells at 2 uM using Ser/Thr 01 as substrate measured after 1 hr by Z'-LYTE assay relative to control; conditions: Insect cell
[16] = molecular target: Cytoplasmic tyrosine-protein kinase BMX (Homo sapiens) (UniProt P51813); assay: Inhibition of recombinant human full-length His-tagged BMX expressed in insect cells at 2 uM using Tyr 01 as substrate measured after 1 hr by Z'-LYTE assay relative to control; conditions: Insect cell
[17] = system: MDA-MB-361; assay: Antitumor activity against human MDA-MB-361 cells xenografted in female nude mouse model assessed as suppression in P-S6K at T389 level at 50 mg/kg, po qd administered as 5 days on/2 days off regimen for 4 cycles by immunoblot analysis; assay type: functional, organism-based; conditions: time 28.0 day
[18] = molecular target: Ephrin type-A receptor 3 (Homo sapiens) (UniProt P29320); assay: Inhibition of recombinant human His-tagged EPHA3 (568-976 residues) expressed in baculovirus expression system at 2 uM measured after 1 hr by Z'-LYTE assay relative to control
[19] = molecular target: Vascular endothelial growth factor receptor 3 (Homo sapiens) (UniProt P35916); assay: Inhibition of recombinant human GST-tagged FLT4 (800-1297 residues) expressed in insect cells at 2 uM using Tyr 04 as substrate measured after 1 hr by Z'-LYTE assay relative to control; conditions: Insect cell
[20] = molecular target: Dual specificity mitogen-activated protein kinase kinase 2 (Homo sapiens) (UniProt P36507); assay: Inhibition of recombinant human full length His-tagged MAP2K2 expressed in baculovirus expression system at 2 uM using Ser/Thr 03 as substrate measured after 1 hr by Z'-LYTE assay relative to control
Chain of Dual specificity mitogen-activated protein kinase kinase 2 (Homo sapiens) (P36507 whole entry): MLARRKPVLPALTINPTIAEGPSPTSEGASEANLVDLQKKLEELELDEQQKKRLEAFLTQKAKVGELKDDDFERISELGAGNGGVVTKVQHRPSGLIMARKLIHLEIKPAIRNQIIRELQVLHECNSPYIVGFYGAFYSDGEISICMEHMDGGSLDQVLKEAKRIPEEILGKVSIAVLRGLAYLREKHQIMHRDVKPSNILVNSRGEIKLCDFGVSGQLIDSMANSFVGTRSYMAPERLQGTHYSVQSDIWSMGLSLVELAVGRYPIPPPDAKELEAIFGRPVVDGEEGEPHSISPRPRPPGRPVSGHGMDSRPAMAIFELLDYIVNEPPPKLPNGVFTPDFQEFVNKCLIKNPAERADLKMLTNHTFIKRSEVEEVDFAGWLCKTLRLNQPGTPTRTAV

[21] = molecular target: Tyrosine-protein kinase JAK2 (Homo sapiens) (UniProt O60674); assay: Inhibition of recombinant human GST-tagged JAK2 (809-1153 +9 residues) expressed in insect cells at 2 uM using Tyr 06 as substrate measured after 1 hr by Z'-LYTE assay relative to control; conditions: Insect cell
[22] = system: HCT-116; assay: Antitumor activity against human HCT-116 cells xenografted in female nude mouse model assessed as suppression in P-AKT at S473 level at 50 mg/kg, iv administered once a week and measured at least 8 hrs by immunoblot analysis; assay type: functional, organism-based
[23] = molecular target: Protein kinase C delta type (Homo sapiens) (UniProt Q05655); assay: Inhibition of recombinant human full length GST-tagged PRKCD expressed in baculovirus expression system at 2 uM using Ser/Thr 07 as substrate measured after 1 hr by Z'-LYTE assay relative to control
[24] = molecular target: Serine/threonine-protein kinase BRSK1 (Homo sapiens) (UniProt Q8TDC3); assay: Inhibition of recombinant human full-length GST tagged BRSK1 expressed in baculovirus expression system at 2 uM using Ser/Thr 21 as substrate measured after 1 hr by Z'-LYTE assay relative to control
[25] = system: A549; assay: Induction of apoptosis in human A549 cells assessed as reduction in S phase at 1 micromol/L incubated for 24 hrs by FACS analysis; assay type: functional, cell-based; conditions: dose 1.0 µmol/L

With `CNC(=O)Nc1ccc(-c2nc(N3CC4CCC(C3)O4)c3cnn(C4CCC5(CC4)OCCO5)c3n2)cc1` the inhibition [1] was 3%, the inhibition [2] was 4% and the inhibition [3] was -1%. The inhibition [4] was 7%, the inhibition [5] was 6% and the inhibition [6] was 12%. The inhibition [7] was 7%, the Activity [8] was “Active” and the inhibition [9] was 1%. It also gave an inhibition [10] of 2%, an inhibition [11] of 7% and an inhibition [12] of 13%. The IC50 [13] was 25 nM, the inhibition [14] was 11% and the inhibition [15] was 3%. The inhibition [16] was 10%, the Activity [17] was “Active” and the inhibition [18] was 4%. The inhibition [19] was 4%, the inhibition [20] was 2% and the inhibition [21] was -3%. For the same compound, the Activity [22] was “Active”, the inhibition [23] was 16% and the inhibition [24] was 1%. For the same compound, the Activity [25] was “Active”.
